Reference: patent publication US9951064B2, “Azaindazole compounds as inhibitors of T790M containing EGFR mutants” (Genentech, Inc., priority 2013, dated 2018)

What was measured:
EGFR del746-750 T790M = molecular target: T1, EGFR del746-750 T790M (Homo sapiens, UniProt P00533, DEL746-750/T790M); assay: EGFR del746-750 T790M biochemical assay (Caliper mobility shift); details: 5 μM ATP; apparent Ki (Morrison fit) converted by Cheng-Prusoff, Km of ATP 2.1 μM; read-out: EGFR(T790M/d746-750) Ki
T1 construct: purchased Carna Biosciences 08-528
In short: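 Caliper mobility-shift read-out, with product electrophoretically resolved from substrate and measured. Reactions were quenched with 80 mM EDTA after 30 min at 22 °C.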

[1] = tested on: H1975 (EGFR T790M/L858R) cell proliferation; assay: H1975 proliferation assay (Cell Titer-Glo); format: cell-based; details: Homo sapiens, NCI-H1975, 72 h, NCI-H1975 cells, 72 hour incubation, read-out: H1975 antiproliferative EC50
Method: H1975 Proliferation Assays
All cell culture reagents were purchased from Invitrogen/Gibco. Cells are cultured at 37° C. at 5% CO2 and split as recommended by ATCC.

EGFR T790M L858R = molecular target: T2, EGFR T790M L858R (Homo sapiens, UniProt P00533, L858R/T790M); assay: EGFR T790M L858R biochemical assay (Caliper mobility shift); details: 5 μM ATP; apparent Ki (Morrison fit) converted by Cheng-Prusoff, Km of ATP 1.3 μM
T2 construct: purchased Life Technologies PV4879
In short: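 Caliper mobility-shift read-out, electrophoretic separation of substrate from product, after a 30-minute kinase reaction at 22 °C. EDTA at 80 mM terminates each reaction.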

[2] = molecular target: T3, phosphor-EGFR in H1975(L585R/T790M) mutant EGFR expressing cells (Homo sapiens, UniProt P00533, L858R/T790M); assay: H1975 pEGFR MSD cellular assay; format: cell-based; details: NCI-H1975 cells, serum starved, 1 hour compound incubation, pEGFR Tyr1068 MSD; read-out: HI975 pEGFR EC50
T3 construct: host or cells: NCI-H1975
In short: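 Phospho-EGFR read by MSD electrochemiluminescence: capture with anti-pEGFR antibody (overnight, 4° C), detection with SULFO-TAG anti-total EGFR (1 hour, room temperature). Before lysis, H1975 cells starved of serum overnight got compound for 1 hour at 37° C, 0.5% DMSO final. EC50 via four-parameter logistic regression of percent inhibition.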

T1 sequence (P00533 with tags, fused parts or gaps DEL746-750/T790M limits assumed): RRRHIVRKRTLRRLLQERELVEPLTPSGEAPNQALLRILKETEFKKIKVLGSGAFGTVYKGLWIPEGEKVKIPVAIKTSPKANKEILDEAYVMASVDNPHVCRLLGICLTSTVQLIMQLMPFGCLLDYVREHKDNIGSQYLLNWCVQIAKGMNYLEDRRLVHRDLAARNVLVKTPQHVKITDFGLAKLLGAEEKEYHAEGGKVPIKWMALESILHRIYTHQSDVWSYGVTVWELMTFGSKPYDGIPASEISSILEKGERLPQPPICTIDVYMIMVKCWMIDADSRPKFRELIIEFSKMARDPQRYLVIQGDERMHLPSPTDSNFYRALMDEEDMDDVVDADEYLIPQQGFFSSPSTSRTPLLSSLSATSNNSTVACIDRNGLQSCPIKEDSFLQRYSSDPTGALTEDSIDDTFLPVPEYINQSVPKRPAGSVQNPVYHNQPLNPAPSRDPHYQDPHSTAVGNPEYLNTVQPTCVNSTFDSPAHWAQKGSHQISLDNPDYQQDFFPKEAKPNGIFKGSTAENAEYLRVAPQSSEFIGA
T2 sequence (P00533 25-1210 T790M/L858R): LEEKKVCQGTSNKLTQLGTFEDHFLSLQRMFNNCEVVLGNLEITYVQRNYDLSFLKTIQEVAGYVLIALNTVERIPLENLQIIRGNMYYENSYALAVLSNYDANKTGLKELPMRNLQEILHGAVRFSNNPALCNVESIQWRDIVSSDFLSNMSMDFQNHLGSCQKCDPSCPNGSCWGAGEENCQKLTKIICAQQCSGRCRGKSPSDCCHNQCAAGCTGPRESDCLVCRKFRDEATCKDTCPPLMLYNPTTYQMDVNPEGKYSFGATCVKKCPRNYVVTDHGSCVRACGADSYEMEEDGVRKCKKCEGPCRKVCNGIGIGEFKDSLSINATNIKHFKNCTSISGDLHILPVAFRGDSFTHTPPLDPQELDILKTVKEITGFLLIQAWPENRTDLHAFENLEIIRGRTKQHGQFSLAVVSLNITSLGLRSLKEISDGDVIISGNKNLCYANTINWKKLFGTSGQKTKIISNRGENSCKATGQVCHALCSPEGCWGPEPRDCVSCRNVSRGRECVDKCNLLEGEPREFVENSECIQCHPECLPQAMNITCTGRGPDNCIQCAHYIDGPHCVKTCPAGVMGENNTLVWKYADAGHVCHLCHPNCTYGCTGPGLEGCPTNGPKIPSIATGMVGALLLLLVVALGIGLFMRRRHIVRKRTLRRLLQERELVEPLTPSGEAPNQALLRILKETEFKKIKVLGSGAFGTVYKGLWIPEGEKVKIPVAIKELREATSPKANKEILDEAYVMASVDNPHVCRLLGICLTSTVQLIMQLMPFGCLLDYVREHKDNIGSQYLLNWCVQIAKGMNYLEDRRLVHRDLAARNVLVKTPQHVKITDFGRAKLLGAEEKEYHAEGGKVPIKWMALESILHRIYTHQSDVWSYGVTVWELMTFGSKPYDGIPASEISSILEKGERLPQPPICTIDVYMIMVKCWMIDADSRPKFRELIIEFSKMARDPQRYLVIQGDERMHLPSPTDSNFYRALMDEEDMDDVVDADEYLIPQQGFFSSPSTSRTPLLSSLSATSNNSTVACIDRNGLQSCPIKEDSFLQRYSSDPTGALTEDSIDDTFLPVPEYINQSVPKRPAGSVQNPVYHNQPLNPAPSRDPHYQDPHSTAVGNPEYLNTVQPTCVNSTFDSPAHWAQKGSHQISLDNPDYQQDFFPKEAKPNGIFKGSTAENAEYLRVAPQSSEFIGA
T3 sequence (P00533 25-1210 T790M/L858R): as above

| Compound | Ki (EGFR del746-750 T790M) [nM] | EC50 [1] [nM] | Ki (EGFR T790M L858R) [nM] | EC50 [2] [nM] |
| --- | --- | --- | --- | --- |
| CC[C@H](C)n1nc(N2CC3(COC3)C2)c2cnc(Nc3ccnc(N4CC[C@](C)(O)[C@H](F)C4)n3)cc21 (relative stereo) [Example 65, (3R*,4S*)-1-{4-[1-((S)-sec-Butyl)-3-(2-oxa-6-azaspiro[3.3]hept-6-yl)-1H-pyrazolo[4,3-c]pyridin-6-ylamino]pyrimidin-2-yl}-3-fluoro-4-methylpiperidin-4-ol] | 9.6 | 874 | 3.6 | 126 |
| CC(C)n1nc(N2CCN(C)C2=O)c2cnc(Nc3ccnc(N4CCC(O)C(F)C4)n3)cc21 (stereo not drawn) [Example 76, 1-(6-(2-(cis-3-Fluoro-4-hydroxypiperidin-1-yl)pyrimidin-4-ylamino)-1-isopropyl-1H-pyrazolo[4,3-c]pyridin-3-yl)-3-methylimidazolidin-2-one] | 13.8 | 1180 | 5.1 | 752 |
| CC(C)n1nc(N2CC(C)(C)NC2=O)c2cnc(Nc3ccnc(N4CCC(O)C(F)C4)n3)cc21 (racemic) [Example 88, (±)-1-(6-(2-(cis-3-Fluoro-4-hydroxypiperidin-1-yl)pyrimidin-4-ylamino)-1-isopropyl-1H-pyrazolo[4,3-c]pyridin-3-yl)-4,4-dimethylimidazolidin-2-one] | 4.3 | 489 | 1.8 | 187 |
| Cc1cn[nH]c1-c1nn(C(C)C)c2cc(Nc3ccnc(N4CCC(O)C(C)(C)C4)n3)ncc12 (stereo not shown) [Example 10, 1-(4-((1-Isopropyl-3-(4-methyl-1H-pyrazol-5-yl)-1H-pyrazolo[4,3-c]pyridin-6-yl)amino)pyrimidin-2-yl)-3,3-dimethylpiperidin-4-ol] | 32.4 | 1710 | 7.5 | 349 |
| CCC(C)n1nc(N2CC3(COC3)C2)c2cnc(Nc3ccnc(N4CCC(C)(O)CC4)n3)cc21 (stereo not shown) [Example 202, 1-(4-((1-(sec-Butyl)-3-(2-oxa-6-azaspiro[3.3]heptan-6-yl)-1H-pyrazolo[4,3-c]pyridin-6-yl)amino)pyrimidin-2-yl)-4-methylpiperidin-4-ol] | 4.8 | 881 | 2.8 | 141 |
| CC(n1nc(N2CC[C@@H](O)C2)c2cnc(Nc3ccnc(N4CCC(C)(O)CC4)n3)cc21)C(F)(F)F (stereo partly drawn) [Example 143, 1-(4-(3-((R)-3-Hydroxypyrrolidin-1-yl)-1-(1,1,1-trifluoropropan-2-yl)-1H-pyrazolo[4,3-c]pyridin-6-ylamino)pyrimidin-2-yl)-4-methylpiperidin-4-ol] | 11.3 | 901 | 2.9 | 219 |
| CCC(C)n1nc(N2CCNC(=O)C2)c2cnc(Nc3ccnc(N4CCC(C)(O)CC4)n3)cc21 (stereo not shown) [Example 92, 4-(1-sec-Butyl-6-(2-(4-hydroxy-4-methylpiperidin-1-yl)pyrimidin-4-ylamino)-1H-pyrazolo[4,3-c]pyridin-3-yl)piperazin-2-one] | 9.5 | 1760 | 3.8 | 788 |

Compounds with a lower Ki (EGFR del746-750 T790M), results first:

| Ki (EGFR del746-750 T790M) [nM] | EC50 [1] [nM] | Ki (EGFR T790M L858R) [nM] | EC50 [2] [nM] | Compound |
| --- | --- | --- | --- | --- |
| 1.3 | 499 | 1.3 | 30.3 | CC(C)n1nc(N2CCCC2)c2cnc(Nc3ccnc(N4CCC(O)C(C)(C)C4)n3)cc21 (stereo not shown) [Example 8, 1-(4-((1-Isopropyl-3-(pyrrolidin-1-yl)-1H-pyrazolo[4,3-c]pyridin-6-yl)amino)pyrimidin-2-yl)-3,3-dimethylpiperidin-4-ol] |
| 3.6 | 765 | 4.9 | 244 | CC(C)n1nc(N2CCCNC2=O)c2cnc(Nc3ccnc(-c4cnn(S(=O)(=O)C5CC5)c4)n3)cc21 [Example 150, 3-(6-(2-(1-(Cyclopropylsulfonyl)-1H-pyrazol-4-yl)pyrimidin-4-ylamino)-1-isopropyl-1H-pyrazolo[4,3-c]pyridin-3-yl)-tetrahydropyrimidin-2(1H)-one] |
| 3.1 | 1210 | 3.3 | 124 | CC(C)n1nc(N2CC3CCC(C2)O3)c2cnc(Nc3ccnc(-c4cnn(S(=O)(=O)C5CC5)c4)n3)cc21 [Example 73, 3-(8-Oxa-3-azabicyclo[3.2.1]octan-3-yl)-N-(2-(1-(cyclopropylsulfonyl)-1H-pyrazol-4-yl)pyrimidin-4-yl)-1-isopropyl-1H-pyrazolo[4,3-c]pyridin-6-amine] |
| 2.5 | 699 | 1.8 | 154 | CC(n1nc(N2CC3(COC3)C2)c2cnc(Nc3ccnc(-c4cnn(S(=O)(=O)C5CC5)c4)n3)cc21)C(F)(F)F (stereo not shown) [Example 172, N-(2-(1-(Cyclopropylsulfonyl)-1H-pyrazol-4-yl)pyrimidin-4-yl)-3-(2-oxa-6-azaspiro[3.3]heptan-6-yl)-1-(1,1,1-trifluoropropan-2-yl)-1H-pyrazolo[4,3-c]pyridin-6-amine] |
| 2.9 | 521 | 1.7 | 67.9 | CC[C@H](C)n1nc(N2CC[C@@H](O)C2)c2cnc(Nc3ccnc(N4CC[C@](C)(O)[C@H](F)C4)n3)cc21 (relative stereo) [Example 69, (3R*,4S*)-1-{4-[1-((S)-sec-Butyl)-3-((R)-3-hydroxypyrrolidin-1-yl)-1H-pyrazolo[4,3-c]pyridin-6-ylamino]pyrimidin-2-yl}-3-fluoro-4-methylpiperidin-4-ol] |
| 1.1 | 2520 | 1.2 | 430 | CC(C)n1nc(N2CC(C(=O)N3CC[C@@H](O)C3)C2)c2cnc(Nc3ccnc(-c4cnn(S(=O)(=O)C5CC5)c4)n3)cc21 [Example 164, (R)-(1-(6-(2-(1-(Cyclopropylsulfonyl)-1H-pyrazol-4-yl)pyrimidin-4-ylamino)-1-isopropyl-1H-pyrazolo[4,3-c]pyridin-3-yl)azetidin-3-yl)(3-hydroxypyrrolidin-1-yl)methanone] |
| 2.1 | 4050 | 3.1 | 1850 | CC[C@@H](C)n1nc(N2CC[C@@H](O)C2)c2cnc(Nc3ccnc(N4CC[C@](C)(C(N)=O)C4)n3)cc21 (relative stereo) [Example 210, (S*)-1-(4-((1-((R*)-sec-Butyl)-3-((R)-3-hydroxypyrrolidin-1-yl)-1H-pyrazolo[4,3-c]pyridin-6-yl)amino)pyrimidin-2-yl)-3-methylpyrrolidine-3-carboxamide] |
| 1.8 | 256 | 1 | 39.5 | CCC(C)n1nc(N2CCNC2=O)c2cnc(Nc3ccnc(N4CC[C@H](OC)[C@H](F)C4)n3)cc21 (mixture of isomers) [Example 98, 1-{1-(sec-Butyl)-6-[2-((3R,4S)-3-fluoro-4-methoxypiperidin-1-yl)pyrimidin-4-ylamino]-1H-pyrazolo[4,3-c]pyridin-3-yl}imidazolidin-2-one] |
| 1.5 | 1640 | 2 | 386 | CC(C)n1nc(NC2CCS(=O)(=O)C2)c2cnc(Nc3ccnc(-c4cnn(S(=O)(=O)C5CC5)c4)n3)cc21 (stereo not shown) [Example 107, 3-((6-((2-(1-(Cyclopropylsulfonyl)-1H-pyrazol-4-yl)pyrimidin-4-yl)amino)-1-isopropyl-1H-pyrazolo[4,3-c]pyridin-3-yl)amino)tetrahydrothiophene 1,1-dioxide] |
